Reference: patent publication US20250019671A1, “RECOMBINANT POLYPEPTIDE HAVING CARBOXYLIC ACID REDUCING ACTIVITY” (priority 2021, published 2025)

Legend:
[1] = tested on: Mycobacterium abscessus carboxylic acid reductase variant G418E; conditions: literature value (Non Patent Literature 6); cited from earlier work
[2] = tested on: Mycobacterium abscessus carboxylic acid reductase variant L342E; conditions: literature value (Non Patent Literature 6); cited from earlier work
[3] = molecular target: Mycobacterium abscessus carboxylic acid reductase variant W283R/A303M (modified carboxylic acid reductase 1), SEQ ID NO: 3 (Mycobacteroides abscessus, UniProt B1MLD7, A303M/W283R); conditions: disodium adipate 0.1875-3 mM; 0.2 mM NADPH, 0.5 mM ATP, pH=8.0, 30° C.; mean of two independent studies
Description: (§1) Examples of the recombinant polypeptide (also referred to as “modified carboxylic acid reductase”) having the amino acid sequence A according to the present invention are illustrated in FIG. 3 (modified carboxylic acid reductase 1, SEQ ID NO: 3) and FIG. 4 (modified carboxylic acid reductase 2, SEQ ID NO: 4). The modified carboxylic acid reductase 1 (consisting of the polypeptide set forth in SEQ ID NO: 3) illustrated in FIG. 3 has amino acid substitutions of W283R and A303M with respect to SEQ ID NO: 1. The modified carboxylic acid reductase 2 (consisting of the polypeptide set forth in SEQ ID NO: 4) illustrated in FIG. 4 has amino acid substitutions of W283R and L335F with respect to SEQ ID NO: 1. That is, in the modified carboxylic acid reductase 1, the amino acid residue at the position corresponding to position 283 and the amino acid residue at the position corresponding to position 303 are substituted with arginine and methionine, respectively, based on the amino acid sequence set forth in SEQ ID NO: 1. In the modified carboxylic acid reductase 2, the amino acid residue at the position corresponding to position 283 and the amino acid residue at the position corresponding to position 335 are substituted with arginine and phenylalanine, respectively, based on the amino acid sequence set forth in SEQ ID NO: 1.

[4] = tested on: Mycobacterium abscessus carboxylic acid reductase variant W283R/A303M (modified carboxylic acid reductase 1), SEQ ID NO: 3
Description: as §1

[5] = tested on: O=C(O)CCCCC(=O)O; test: purified protein, by the assay type; conditions: 0.2 mM NADPH, 0.5 mM ATP, 10 mM MgCl2, 100 mM HEPES potassium buffer pH=8.0, 30° C., mean of two independent studies
[6] = other: disodium adipate 3.125-50 mM

O=C(O)CCCCC(=O)O [adipic acid, hexanedioic acid]
Km [1]: 18.7 mM | Kcat [2]: 2.72 ± 0.09 s⁻¹ | Km [2]: 56.6 mM | Kcat [3]: 3.53 s⁻¹ | Vmax [3]: 24.8 µmol/L/min | Km of the mutant enzyme for adipic acid compared to the existing variant carboxylic acid reductases (L342 and G418E mutants) ([4]; W283R/A303M mutant vs literature L342 and G418E mutants): 1/17 | Km of the mutant enzyme for adipic acid relative to that of the wild-type enzyme ([4]; W283R/A303M mutant vs wild-type enzyme): 1/20

Mycobacterium abscessus carboxylic acid reductase variant W283R/A303M (modified carboxylic acid reductase 1), SEQ ID NO: 3 (Mycobacteroides abscessus ATCC 19977; A303M/W283R)
Km ([5]; other: disodium adipate 0.1875-3 mM): 1.06 mmol/L

Mycobacterium abscessus carboxylic acid reductase, wild-type, SEQ ID NO: 1 (Mycobacteroides abscessus ATCC 19977)
Km [5, 6]: 23.3 mmol/L | Vmax [5, 6]: 18.1 µM/min | kcat [5, 6]: 1.68 s⁻¹
